Test results as given in patent US10292390B2, “Inhibition and dispersion of bacterial biofilms with 2-aminobenzimidazole derivatives” (WISCONSIN ALUMNI RESEARCH FOUNDATION, priority 2011, dated 2019).
Entries after “also recorded” stand apart in the source; their conditions may differ. Read-outs that look alike come from different tables or passages of the source.

Assays:
[1] = system: P. aeruginosa PAO1 biofilm; assay: crystal violet static biofilm inhibition assay; type: cell-based, Pseudomonas aeruginosa; conditions: for IC50: Pseudomonas aeruginosa, PAO1
Description: Stilbenes 1, 2, and 4a-b were tested for inhibition of biofilm formation in a wild-type P. aeruginosa strain (PAO1) at 500 μM using standard static biofilm growth assays.
Biofilms were grown in a modified M9 minimal media in 96-well microtiter plates, and crystal violet staining of the surface-associated biomass was used to quantify biofilm growth at 12 and 24 h (see The Examples).
A modified version of the widely used crystal violet (CV) microtiter plate biofilm assay, first described by Christensen et al. and later popularized by O'Toole et al., [57] was used in this study and is described in detail below.
Compounds to be evaluated for biofilm modulatory activity were added to the assay microtiter plates by means of a “solvent evaporation” delivery. This delivery method involves preparation of compound stock solutions, addition of stocks to microtiter plates at appropriate volumes to obtain target molar quantities per well, evaporation of the solvent, and re-solubilization of the compound in the final assay medium upon inoculum addition. This delivery method was adopted to avoid the biofilm inhibitory effects observed with an “organic solvent-to-solution” delivery method (e.g., DMSO-to-media; data not shown), which is more commonly done in small molecule screens. EtOH was chosen as the solvent for solvent evaporation delivery in this study based on the chemical resistance limitations of polystyrene microtiter plates. Prior to each experiment, EtOH stock solutions of compounds being evaluated were prepared, diluted, and added to microtiter plates at varied volumes to obtain a target final concentration per well upon inoculum addition. Plates were incubated at 37° C. to evaporate EtOH and sterilized in a Baker SterilGARD III Advance Biological Safety Cabinet by UV-C germicidal irradiation for 30 min (lids removed). EtOH only was added to wells designated as “no compound” positive controls (Pos. Con.) and “no bacteria” negative controls (note, controls lacking bacteria yielded no significant staining in the CV assay (data not shown)). The outer wells were never used for test samples as evaporation and significant deviations in growth were observed; thus, outer wells were filled with sterile 18 MΩ H2O to minimize these effects.
Bacterial samples for biofilm assessment were prepared by first streaking a freezer stock of P. aeruginosa PAO1 on an LB/agar plate and incubating at 37° C. for ˜16 h. Single colonies were selected and used to inoculate LB medium (10 mL) in a 25 mL Erlenmeyer flask. The culture was grown on an incubator-shaker (200 rpm) at 37° C. for ˜16 h to an OD600 of ˜1.0. Overnight cultures were gently decanted into falcon tubes to minimize transfer of biofilm produced during overnight growth. An inoculating culture was prepared by centrifuging an aliquot of overnight culture at 3,000 rpm for 10 min, removal of the supernatant, and then re-suspending the pellet in 95:5 M9+:LB at 10-fold the initial volume (effecting a 1-in-10 dilution; OD600 ˜0.1-0.2). Using a multi-channel pipette, this culture was added to test microtiter plates in 200 μL aliquots. The well contents were mixed using a 10 μL multi-channel pipette in a swirling motion; insoluble compound samples were noted and later excluded from the data set as needed.
Plates were covered with the provided lid and incubated statically at 37° C. for 12-24 h. Maximal biofilm formation is obtained at 24 h, after which the amount of biofilm declines unless fresh nutrients are provided. After incubation, the OD600 was measured, and the bacterial suspension was removed by inverting and shaking the plate over a waste pan and then taping on a paper towel (process termed “dumping”). Non-biofilm associated biomaterial was removed by adding 225 μL PBS and dumping (process termed “washing”) and then repeating this washing process. Biofilm was fixed to the microtiter plates by uncovering the plate and thermally dehydrating at 37° C. […]

[2] = system: P. aeruginosa PAO1 gen-gfp; assay: constitutive GFP production (general protein synthesis); type: cell-based, Pseudomonas aeruginosa; conditions: 24 h; dose-response
Description: Compounds 7 and 21 were tested for their effect on general protein synthesis in P. aeruginosa. In these assays a P. aeruginosa strain that constitutively produced GFP was employed. […] [59]
The constitutively-expressing genomic (gen)-GFP strain, PAO1 gen-gfp, was prepared using the mini-Tn7 transposon system reported by Lambertsen et al. and Koch et al. to introduce the Tn7 element miniTn7-gfp2 into the neutral chromosomal site attTn7 in the PAO1 genome. The Tn7 element miniTn7-gfp2 was chosen for these studies because it encodes for the same GFP variant, GFPmut3b, used in our QS reporters, discussed herein below. However, rather than being an unstable GFP under the control of the laslI or rhII QS-dependent promoter as in the QS reporters, GFP is stable and under the control of the constitutive E. coli lac-promoter derivative PA1/04/03. The use of this strain allows a comparison of QS-dependent and non-QS-dependent gene expression in the presence of 7 and 21.
Compounds 7 and 21 were evaluated for their ability to affect constitutive GFP production in the P. aeruginosa PAO1 gen-gfp strain using the static biofilm assay conditions described above. […] Measurements of FL500/540 and OD600 were made at 24 h, after which the samples were evaluated for biofilm formation using the CV procedure. […]

[3] = 12 h incubation, CV assay, read-out: 12 h biofilm IC50
[4] = 24 h incubation, CV assay, read-out: 24 h biofilm IC50
[5] = added exogenously to solution, read-out: IC50 for biofilm inhibition
[6] = 24 h, read-out: IC50 for biofilm inhibition
[7] = Table 1, crystal violet, read-out: IC50, P. aeruginosa PAO1 biofilm inhibition

Cc1cc2nc(N)[nH]c2cc1C [Compound 21, 5,6-Dimethyl-2-aminobenzimidazole]
concentrations at which inhibitor (not activator) of biofilm formation ([1]; P. aeruginosa): ≤ 3.2 mM | IC50 [1, 3]: 4.3 µM | IC50 [1, 4]: 4 µM | IC50 [1, 5]: 4 µM | IC50 [1, 6]: 4 µM | IC50 [1, 7]: 4 µM | fold more active than parent compound 7 ([1]; biofilm inhibition IC50): ~10 fold | effect on constitutive GFP production / protein synthesis [2]: only inhibit the production of GFP at concentrations where bacterial growth is also inhibited; also recorded: do not simply globally affect protein synthesis

Nc1nc2ccccc2[nH]1 [Compound 7, 2-aminobenzimidazole]
inhibition of biofilm formation ([1]; 24 h): 94% | IC50 [1, 3]: 50.5 µM | IC50 [1, 4]: 46.8 µM | IC50 [1, 5]: 47 µM | IC50 [1, 6]: 47 µM | IC50 [1, 7]: 47 µM | effect on constitutive GFP production / protein synthesis [2]: only inhibit the production of GFP at concentrations where bacterial growth is also inhibited; also recorded: do not simply globally affect protein synthesis
